Test [1] deals with SCA2.1–40 (DNA, aptamer) CTTACGACCTTAAGTGGGGTTCGGGTGGAGTTTATGGGGT
The test can be described thus: isothermal titration calorimetry.

Test [2] relates to SCA2.1–34 (DNA, aptamer) ACCTTAAGTGGGGTTCGGGTGGAGTTTATGGGGT
Briefly: isothermal titration calorimetry. A general note: ITC needs no label: the signal is the heat of the interaction.

As a reminder, the KD is the equilibrium constant for the complex coming apart. Lower therefore signals a tighter complex. For the molecule `CCCC(C(=O)c1ccc2c(c1)OCO2)N1CCCC1` (stereo not drawn), the KD in test [1] was 292 ± 14 µM; in test [2], 96 ± 4.0 µM. The molecule `CCC[C@H](C(=O)c1ccc2c(c1)OCO2)N1CCCC1` returned a KD in test [1] of 0.65 ± 0.03 µM.

The record behind these values is publication PMC7646944 (2020).
